Measurements from article PMC9228592, “Dichloroacetyl Amides of 3,5-Bis(benzylidene)-4-piperidones Displaying Greater Toxicity to Neoplasms than to Non-Malignant Cells” (Medicines, 2022).
*1 amine or outer side, *2 acyl side, *3 side chain or, on linkers, in order; H or OH if unused. Where a SMILES comes first, the peptide text is derived from it. Bridges are numbered along the chain shown (N, C = ends). Roman numbers before positions name the chains, in order. [ ]: non-standard residue; d: D form. Actinocin(9to1) = Cc1c2oc3c(C)ccc(C(=O)[*:1])c3nc-2c(C(=O)[*:2])c(N)c1=O; NMeV = CN[C@H](C(=O)O)C(C)C; Sar = CNCC(=O)O

Key:
Assay type in all cases: cell-based, human
[1] = tested on: Ca9-22 squamous cell carcinoma cells; assay: Cytotoxicity (MTT, 48 h) against Ca9-22 cells; settings: for CC50: 48 h, MTT, mean ± S.D. of triplicate; for SI (Ca9-22): average CC50 towards HGF, HPLF, HPC divided by CC50 against Ca9-22
From the text: (§1) The target cells used in our study were human oral squamous cell carcinoma cell lines Ca9-22 (purchased from RIKEN Cell Bank, Tukuba, RCB-1976), HSC-2 (RCB1945), HSC-3 (RCB1975), HSC-4 (RCB1902), and three human normal oral cells, gingival fibroblast (HGF), periodontal ligament fibroblast (HPLF), and pulp cells (HPC) [established from the first premolar extracted tooth in the lower jaw (because of dysfunctional position or orthodontic treatment) and periodontal tissues of a child, according to the guideline of the Institutional Board of Meikai University Ethics Committee (No. A0808)], after obtaining informed consent from the patients. These cells were incubated for 48 h with the indicated concentrations of test samples or reference compounds sodium dichloroacetate (purchased from Sigma-Aldrich Chemical Company, Saint Louis, MO, USA), 5-fluorouracil (5-FU) from Kyowa (Tokyo, Japan), and doxorubicin (DXR) (St. Louis, MO, USA) and vehicle (DMSO) (0.008, 0.016, 0.031, 0.063, 0.125, 0.25, 0.5, and 1%) in Dulbecco’s Modified Eagle Medium (DMEM) media, which was supplemented with 10% heat-inactivated fetal bovine serum. Cell viability was determined by the MTT method. Cytotoxicity caused by the vehicle (DMSO) was subtracted.
(§2) SI was calculated by dividing the average CC50 value (concentration of the compound to kill 50% of the cells) of the compound towards HGF, HPLF, and HPC cells by the CC50 value of the compound against a specific neoplastic cell line.

[2] = tested on: HSC-2 squamous cell carcinoma cells; assay: Cytotoxicity (MTT, 48 h) against HSC-2 cells; settings: for SI (HSC-2): average CC50 towards HGF, HPLF, HPC divided by CC50 against HSC-2
From the text: as §1, §2

[3] = tested on: HSC-3 squamous cell carcinoma cells; assay: Cytotoxicity (MTT, 48 h) against HSC-3 cells; settings: for CC50: 48 h, MTT, mean ± S.D. of triplicate; for SI (HSC-3): average CC50 towards HGF, HPLF, HPC divided by CC50 against HSC-3
From the text: as §1, §2

[4] = tested on: HSC-4 squamous cell carcinoma cells; assay: Cytotoxicity (MTT, 48 h) against HSC-4 cells; settings: for CC50: 48 h, MTT, mean ± S.D. of triplicate; for SI (HSC-4): average CC50 towards HGF, HPLF, HPC divided by CC50 against HSC-4
From the text: as §1, §2

[5] = Cytotoxicity (MTT, 48 h) against HGF non-malignant cells; settings: human, normal gingival fibroblasts (HGF), mean ± S.D. of triplicate
From the text: as §1

[6] = Cytotoxicity (MTT, 48 h) against HPLF non-malignant cells; settings: human, normal periodontal ligament fibroblasts (HPLF), mean ± S.D. of triplicate
From the text: as §1

[7] = Cytotoxicity (MTT, 48 h) against HPC non-malignant cells; settings: female, human, normal pulp cells (HPC), mean ± S.D. of triplicate
From the text: as §1

[8] = tested on: Ca9-22, HSC-2, HSC-3, and HSC-4 cells; assay: Average cytotoxicity, selectivity and PSE over the four carcinoma lines; settings: for CC50: average over Ca9-22, HSC-2, HSC-3, HSC-4; for Average SI: average of SI over Ca9-22, HSC-2, HSC-3, HSC-4
From the text: as §1, §2
PSE reflects both the potencies and differences in cytotoxicity to neoplasms and non-malignant cells. This value was the product of the reciprocal of the average CC50 value of the compounds towards Ca9-22, HSC-2, HSC-3, and HSC-4 cells and the average SI value × 100.

[9] = Average cytotoxicity over the three non-malignant cells; settings: female, human, normal oral cells HGF, HPLF and HPC (average over the three)
From the text: as §1

Ca9-22 cells [10] = assay: Cell cycle assay in Ca9-22 cells; settings: 20 h; for G2M cell population: p < 0.05; for effect on the cell cycle: 0.1, 0.2, and 0.4 µM
Procedure: The evaluation of varying quantities of 1d,e,k on the cell cycle in Ca9-22 cells was undertaken by a literature method. In brief, Ca9-22 cells were treated for 20 h without (control) or with the indicated concentrations of the test samples. To neglect the cytotoxicity effect of DMSO, all samples contained 0.1% DMSO. Cells (approximately 10^6 cells) were harvested, fixed for 1 h on ice with 1% paraformaldehyde, washed twice by phosphate-buffered saline, treated for 30 min at 37 °C with 0.2 mg/mL RNase A (ribonuclease A), stained for 15 min at room temperature with 0.01% propidium iodide in the presence of 0.01% NP-40 (nonyl phenoxypolyethoxyethanol) to prevent cell aggregation, filtered through Falcon® cell strainers (pore size: 40 µm) (Corning, NY, USA), subjected to cell sorting (SH800 Series; SONY Imaging Products and Solutions Inc., Kanagawa, Japan), and then analyzed with Cell Sorter Software version 2.1.2. (SONY Imaging Products and Solutions Inc., Kanagawa, Japan).

Ca9-22 cells [11] = assay: Mitotic accumulation in Ca9-22 cells
Procedure: Another way in which cytotoxicity could occur is by initiating mitosis. In order to examine this possibility, different concentrations of the potent cytotoxin 1k that were 3, 10, and 30 times the CC50 value were incubated with Ca9-22 cells for 20 h. […] In order to explore the possibility that the dichloroacetyl group contributed to this effect, concentrations of 2a that were 3, 10, and 30 times the CC50 concentration were incubated with Ca9-22 cells for 20 h. […] The question arose as to the way in which this observation could be useful in anticancer drug design. Cells which are stimulated to divide are likely more sensitive to a subsequent attack of a cytotoxin when cells are in a resting stage, for example.

PARP = PARP cleavage in Ca9-22 cells (Western blot)
Procedure: (§3) The effect of 20 h incubation of different concentrations of 1k and 2a with Ca9-22 cells on the cleavage of PARP and procaspase 3 cleavage was undertaken using a reported procedure. In brief, the control and treated Ca9-22 cells at near confluent phase were collected and lysed, and protein samples of cell lysates (15 µg) were applied to SDS-polyacrylamide gel electrophoresis. After electrophoresis, the separated proteins were transferred onto a PVDF (polyvinylidene fluoride) filter. The blots were treated in skim milk and then probed for 120 min with a primary antibody cocktail (1:250) from an Apoptosis Western Blot Cocktail kit (purchased from Abcam, Cambridge, UK). The blots were washed and probed with horseradish peroxidase conjugated secondary antibody cocktail (1:100). Immunoreactivities were determined using Amer-sham ECL Select. Images were acquired using ChemiDoc MP System and Image Lab 4.1 software (Bio-Rad Laboratories, Hercules, CA, USA).

procaspase 3 = assay: Procaspase 3 cleavage in Ca9-22 cells (Western blot)
Procedure: as §3

[12] = tested on: gingival fibroblast (HGF); assay: Cytotoxicity (MTT, 48 h) against HGF non-malignant cells; settings: mean ± S.D. of triplicate
From the text: as §1

[13] = tested on: periodontal ligament fibroblast (HPLF); assay: Cytotoxicity (MTT, 48 h) against HPLF non-malignant cells; settings: mean ± S.D. of triplicate
From the text: as §1

pulp cells (HPC) = assay: Cytotoxicity (MTT, 48 h) against HPC non-malignant cells; settings: mean ± S.D. of triplicate
From the text: as §1

HGF, HPLF, and HPC cells = assay: Average cytotoxicity over the three non-malignant cells
From the text: as §1

[14] = Homo sapiens, HSC-2, 48 h, MTT, mean ± S.D. of triplicate
[15] = 48 h, MTT, mean ± S.D. of triplicate

Structure (SMILES) | CC50 ([1]; Homo sapiens, Ca9-22) [µM] | SI (Ca9-22) [1] | CC50 [2, 14] [µM] | SI (HSC-2) [2] | CC50 ([3]; Homo sapiens, HSC-3) [µM] | SI (HSC-3) [3] | CC50 ([4]; Homo sapiens, HSC-4) [µM] | SI (HSC-4) [4] | CC50 at 48 h [5] [µM] | CC50 at 48 h [6] [µM] | CC50 at 48 h [7] [µM] | CC50 ([8]; Homo sapiens) [µM] | Average SI [8] | CC50 at 48 h [9] [µM] | further results
O=C1/C(=C/c2ccc(Cl)cc2)CN(C(=O)C(Cl)Cl)C/C1=C\c1ccc(Cl)cc1 [Compound 1d] | 0.05 | 28.8 | 0.1 ± 0.01 | 14.4 | 0.19 ± 0.02 | 7.58 | 0.18 ± 0.04 | 8.00 | 2.13 ± 0.12 | 1.29 ± 0.14 | 0.9 ± 0.02 | 0.13 | 14.7 | 1.44 | G2M cell population (Ca9-22 cells [10]; 0.8 µM): most prominent increase; effect on the cell cycle (Ca9-22 cells [10]): little effects
O=c1[nH]cc(F)c(=O)[nH]1 [Compound 5-FU, 5-fluorouracil, reference compound] | 24.5 ± 12.3 | >40.7 | 30.5 ± 7.1 | >32.7 | 61.3 ± 9.8 | >16.3 | 7.58 ± 0.5 |  | > 1000 | > 1000 | > 987 | 31 | >55.2 | > 996 | 
O=C1C(=Cc2ccccc2)CNCC1=Cc1ccccc1 [Compound 2a, 3,5-bis(benzylidene)-4-piperidone] | 0.19 ± 0.03 |  | 0.39 ± 0.01 | 30.0 | 0.8 ± 0.07 | 14.6 | 0.79 ± 0.22 | 14.8 | 21.7 ± 6 | 9.1 ± 2.87 | 4.3 ± 0.72 | 0.54 | 30.3 | 11.7 | mitotic accumulation (Ca9-22 cells [11]; 2 µM and 6 µM, 20 h): mitotic accumulation occurred; PARP cleavage (PARP; 2 and 6 µM, 20 h): PARP was cleaved; cleavage of procaspase to caspase 3 (procaspase 3; 2 and 6 µM, 20 h): cleavage of procaspase to caspase 3 was observed
COc1cccc2c1C(=O)c1c(O)c3c(c(O)c1C2=O)C[C@@](O)(C(=O)CO)C[C@@H]3O[C@H]1C[C@H](N)[C@H](O)[C@H](C)O1 [DXR, doxorubicin, reference compound] | 0.43 ± 0.04 | >22.2 | 0.2 ± 0.02 | >47.8 | 0.26 ± 0.21 | >36.7 | 0.12 | >79.6 | > 10 | > 10 | > 8.65 | 0.25 | >46.6 | > 9.55 | 
COc1ccc(/C=C2\CN(C(=O)C(Cl)Cl)C/C(=C\c3ccc(OC)c(OC)c3)C2=O)cc1OC [Compound 1g] | 0.11 ± 0.02 | 36.8 | 0.17 ± 0.02 | 23.8 | 0.28 ± 0.03 | 14.5 | 0.2 ± 0.04 | 20.3 | 8.13 ± 2.47 | 2.83 ± 1.53 | 1.19 ± 0.09 | 0.19 | 23.9 | 4.05 | 
O=C1C(=Cc2ccc(Cl)c(Cl)c2)CN(C(=O)C(Cl)Cl)CC1=Cc1ccc(Cl)c(Cl)c1 [Compound 1e] |  | 19.5 |  | 9.75 |  | 6.00 |  | 3.39 |  |  |  |  | 9.66 |  | CC50 [1]: 0.04 µM; CC50 [2, 15]: 0.08 ± 0.01 µM; HSC-2 CC50 [2, 15]: double-digit nanomolar; CC50 [3]: 0.13 ± 0.06 µM; CC50 [4]: 0.23 ± 0.01 µM; CC50 [12]: 1.04 ± 0.13 µM; CC50 [13]: 0.82 ± 0.1 µM; CC50 (pulp cells (HPC)): 0.49 µM; CC50 [8]: 0.12 µM; CC50 (HGF, HPLF, and HPC cells): 0.78 µM; subG1 population (Ca9-22 cells [10]; 0.8 µM): slight increase; G2M cell population (Ca9-22 cells [10]; 0.8 µM): most prominent increase; effect on the cell cycle (Ca9-22 cells [10]): little effects
Cc1c2oc3c(C)ccc(C(=O)N[C@@H]4C(=O)N[C@H](C(C)C)C(=O)N5CCC[C@H]5C(=O)N(C)CC(=O)N(C)[C@@H](C(C)C)C(=O)O[C@@H]4C)c3nc-2c(C(=O)N[C@@H]2C(=O)N[C@H](C(C)C)C(=O)N3CCC[C@H]3C(=O)N(C)CC(=O)N(C)[C@@H](C(C)C)C(=O)O[C@@H]2C)c(N)c1=O [actinomycin D, reference compound] (I: T[dV]P[Sar][NMeV] / II: T[dV]P[Sar][NMeV]; ester I:1-I:C, II:1-II:C; linker I:N-II:N via Actinocin(9to1)) |  |  |  |  |  |  |  |  |  |  |  |  |  |  | mitosis (Ca9-22 cells [11]; 1 µM): Increased mitosis; PARP cleavage (PARP; 1 µM): Cleavage; procaspase 3 cleavage (procaspase 3; 1 µM): Cleavage
CC(=O)N1C/C(=C\c2ccccc2)C(=O)/C(=C/c2ccccc2)C1 [Compound 2b] | 0.64 ± 0.01 | 17.3 | 1.23 ± 0.07 | 9.02 | 2.25 ± 0.08 | 4.93 | 1.57 ± 0.12 | 7.07 | 23 ± 1.7 | 5.6 ± 1.13 | 4.83 ± 0.12 | 1.42 | 9.58 | 11.1 | 
O=C1C(=Cc2ccccc2)CN(C(=O)C(Cl)Cl)CC1=Cc1ccccc1 [Compound 1a] |  | 9.64 |  | 6.05 |  | 3.14 |  | 6.86 |  |  |  |  | 6.42 |  | CC50 [1]: 0.42 ± 0.04 µM; CC50 [2, 15]: 0.67 ± 0.06 µM; CC50 [3]: 1.29 ± 0.07 µM; CC50 [4]: 0.59 ± 0.12 µM; CC50 [12]: 5.9 ± 0.1 µM; CC50 [13]: 3.37 ± 0.42 µM; CC50 (pulp cells (HPC)): 2.88 ± 0.08 µM; CC50 [8]: 0.74 µM; CC50 (HGF, HPLF, and HPC cells): 4.05 µM
